US11026945B2, “Protein kinase RNA-like endoplasmic reticulum kinase (PERK) inhibitors for prevention and/or treatment of lung injury and/or inflammation” (THE TRUSTEES OF THE UNIVERSITY OF PENNSYLVANIA, priority 2016, dated 2021)

Legend:
[1] = system: cleaved caspase 3 (Casp3) in AEC-I monolayers; format: cell-based, rat
[2] = system: AEC-I monolayers; assay: Monolayer permeability, FITC-labeled streptavidin binding to biotin; format: cell-based, rat
Description: To obtain monolayer rat type-II alveolar epithelial cells (AEC-II), cells were isolated from Sprague-Dawley rats (250-300 g, N=30 purchased from Charles River Laboratories, Wilmington, Mass.) described by Tschumperlin D J, Margulies SS. Equibiaxial deformation-induced injury of alveolar epithelial cells in vitro. Am J Physiol. 1998; 275(6 Pt 1):L1173-83. Epub 1998/12/09 (PubMed PMID: 9843855), with modifications. Briefly, animals were killed and the lungs were harvested. The lung tissue was digested with elastase at 37° C. and distal airways were isolated. Following, cells were placed on rat IgG coated containing no serum for 90 minutes to eliminate contaminating leukocytes and parenchymal cells. This isolation method yielded approximately 95% pure alveolar epithelial cell population. 1.3 million cells were plated on 1 cm diameter fibronectin-coated custom made silastic membranes. In permeability studies, biotin were mixed with fibronectin and membranes were pretreated with oxygen plasma coating to ensure homogenous distribution of the fibronectin. Cells were cultured with 10% fetal bovine serum (FBS)-containing Minimal Essential Medium (MEM) containing low dose antibiotics for 3 days. 32 to 40 monolayers were per rat. On the 3rd day, matured monolayers were randomized to be exposed to one of the treatments for 24 hours (N=3 monolayers/treatment): • A. RNAiMax transfection reagent treatment using serum free media (Opti-MEM, Thermo Fisher Scientific, Waltham, Mass.). This is a negative control for siRNA experiments where serum free media is used for improved transfection efficiency; • B. non-targeting siRNA treatment ([…], Dharmacon) serves a negative control for transfection; • C. […]
The dose of siRNA and PI treatment was selected based on dose-response curves above (FIG. 2A-FIG. 2E). […] All membranes were treated with FITC-labeled streptavidin (Thermo Fisher Scientific) at the end of the experiment and light emission was detected at 488 nm with fluorescent microscopy (Nikon TE300, Melville, N.Y.). […]

Molecule: O=C(/C=C/c1ccccc1)NC(NC(=S)Nc1cccc2cccnc12)C(Cl)(Cl)Cl (stereo not shown) [salubrinal]
- Casp3 levels ([1]; salubrinal, unstretched and stretched monolayers): significant increase
- monolayer permeability ([2]; 10 uM salubrinal 2 hrs pretreatment): increased permeability

Molecule: tunicamycin
- cell death measured with cleaved caspase 3 (Casp3) ([1]; tunicamycin 1 μg/ml 24 hrs): not related to increased cell death
- monolayer permeability ([2]; 1 ug/ml tunicamycin 24 hrs treatment, vs DMSO vehicle control): increased permeability
